The source of these data is patent US20060269480A1, “Multi-triggered self-immolative dendritic compounds” (Ramot At Tel Aviv University Ltd., priority 2005, published 2006).

The structures appear in SMILES notation.

The subject of one assay is HEL cells. In words: Cell growth inhibition, [3H]thymidine proliferation assay. It counts as cell-based. The settings on record: Homo sapiens, read-out: IC50, HEL cells, 72 hours incubation, 38C2 or PGA at 1 μM where stated, read-out: IC50, Hell cells. On the procedure:
(§1) Cell lines: Human T-lineage acute lymphoblastic leukemia (ALL) cell line MOLT-3, and human erythroleukemia cell line HEL were purchased from American Type Culture Collection (ATCC, Rockville, Md.) and maintained in RPMI 1640 medium (Hyclone, Logan, Utah) supplemented with 10% FCS, 1.5 gram/liter sodium bicarbonate, 10 mM HEPES, 1 mM sodium pyruvate, and antibiotics (Gibco, Grand Island, N.Y.).
(§2) Cytotoxicity assays: Stock solutions of 2 mM doxorubicin (Dox) and dual-triggered prodrug (pro-Dox, Compound 16) in dimethylformamide were stored at 4° C. For cell-growth inhibition assays, 100 μM solutions of the drug or prodrug in PBS were freshly prepared from the 2 mM stock solutions.
(§3) Cells were harvested from culture dishes, washed once with HBSS, re-suspended in cell culture medium, and plated in 96-well tissue culture plate at a density of 5×10^3/well in 100 μl media. Drugs were further diluted in cell culture medium to yield final concentration of 50 pM-1 μM and added to the cells. […] The cells were frozen at −80° C. overnight and subsequently processed on a multichannel automated cell harvester (Cambridge Technology, Cambridge, Mass.) and counted in a liquid scintillation beta counter (Beckman Coulter). […] The inhibition in experiment E was calculated according to the following formula: (background−E)/background×100%. […]

Assay [1] relates to MOLT-3 cells. Described as above. It is filed as cell-based. The following applies: Homo sapiens, 72 hours incubation, 38C2 or PGA at 1 μM where stated. On the procedure:
as §1, §2, §3

Assay [2] concerns MOLT-3 cells. Description: Apoptosis by annexin V/7-AAD flow cytometry. It is filed as cell-based, human. The following applies: 25 nM drug or prodrug, 1 μM 38C2 or PGA where stated. The method, then:
as §1
Assessment of apoptosis: Cells were stained with Phycoerythrin (PE)-conjugated annexin V and 7-AAD using the annexin V kit (BD PharMingen, San Diego, Calif.) according to the manufacture's protocol. In brief, cells were collected at different time points, washed once with EDTA-free PBS, and then incubated for 15 minutes with a mixture containing annexin V-PE and 7-AAD in binding buffer (10 mM HEPES (pH 7.4), 140 mM NaCl, and 2.5 mM CaCl2). Thereafter, the supernatants were removed, and 400 μl of binding buffer was added to each sample. The fluorescence was analyzed by flow cytometry (FACScan, Becton Dickinson, San Jose, Calif.) for the presence of viable (AV^− and 7-AAD^−), early apoptotic (AV^+, 7-AAD^−), and late apoptotic/secondary necrotic (AV^+ and 7-AAD^+) cells.
MOLT-3cells were incubated in the presence of Compound 16 and PGA or Ab38C2, as described in the Methods section hereinabove, for various time periods. […]
Background: Flow cytometry measures light scatter and fluorescence of single cells or particles in a stream.

Broadly, the IC50 is the concentration that gives 50% inhibition. Consider `COc1cccc2c1C(=O)c1c(O)c3c(c(O)c1C2=O)C[C@@](O)(C(=O)CO)C[C@@H]3O[C@H]1C[C@H](N)[C@H](O)[C@H](C)O1` [Dox, doxorubicin], for which the figures for the concentration for half-maximal inhibition (IC50) with HEL cells and with MOLT-3 cells [1] were 0.02 µM and 0.003 µM, respectively. Moreover, in the assay with MOLT-3 cells [2], the “incubation time after which the majority of cells were in early or late apoptotic state” value turned out to be 24 h. The induction of apoptosis result in the assay on MOLT-3 cells [2] (up to 72 hours) was “undergo apoptosis”.
